According to the supplement of paper PMC11061612:

Legend:
CHL-1 (Melanoma) [1] = experiment: combination Emax (second highest fraction inhibited in the dose matrix, 72 h); higher = more inhibition; extreme values may be limits of the assay
Method in brief: (§1)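 Bliss excess equals the observed combination effect minus the expected value EA + EB − EA·EB, where EA and EB are the effects of each agent alone. Combination Emax is the second-highest inhibition within the matrix. Inhibition was scaled from CellTiter-Glo 2.0 luminescence, with 0 set by vehicle wells and 1 by blank wells, after 72 hours of two-drug dosing of cells plated in 1536-well plates.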

[2] = system: Becker (Low Grade Glioma); experiment: as above
Method in brief: as §1

[3] = system: SK-MM-2 (Plasma Cell Myeloma); experiment: as above
Method in brief: as §1

[4] = system: EB-3 (Burkitt's Lymphoma); experiment: Bliss excess, mean over the matrix (fraction); higher = more synergy
Method in brief: as §1

[5] = system: OV-90 (Ovarian Carcinoma); experiment: as above
Method in brief: as §1

HuO-3N1 (Osteosarcoma) = experiment: as above
Method in brief: as §1

[6] = system: SJRH30 (Rhabdomyosarcoma); experiment: as above
Method in brief: as §1

[7] = system: PC-14 (Lung Adenocarcinoma); experiment: as above
Method in brief: as §1

CHL-1 (Melanoma) [8] = experiment: as above
Method in brief: as §1

[9] = system: NKM-1 (Acute Myeloid Leukemia); experiment: as above
Method in brief: as §1

[10] = system: FLO-1 (Esophageal Adenocarcinoma); experiment: as above
Method in brief: as §1

ES-2 (Ovarian Carcinoma) = experiment: as above
Method in brief: as §1

[11] = system: Becker (Low Grade Glioma); experiment: as above
Method in brief: as §1

[12] = system: SK-MM-2 (Plasma Cell Myeloma); experiment: as above
Method in brief: as §1

[13] = system: HCC-44 (Lung Adenocarcinoma); experiment: as above
Method in brief: as §1

[14] = system: RMG-I (Ovarian Carcinoma); experiment: as above
Method in brief: as §1

[15] = system: KYSE-70 (Esophageal Squamous Cell Carcinoma); experiment: as above
Method in brief: as §1

[16] = system: PANC-02-03 (Pancreatic Carcinoma); experiment: as above
Method in brief: as §1

[17] = system: LAMA-84 (Chronic Myelogenous Leukemia); experiment: as above
Method in brief: as §1

[18] = system: CML-T1 (Chronic Myelogenous Leukemia); experiment: as above
Method in brief: as §1

With `CS(=O)(=O)CCNCc1ccc(-c2ccc3ncnc(Nc4ccc(OCc5cccc(F)c5)c(Cl)c4)c3c2)o1` [Lapatinib] + NC1(c2ccc(-c3nc4ccn5c(=O)[nH]nc5c4cc3-c3ccccc3)cc2)CCC1 [MK-2206] (first compound max 10 µM, 7x7, partner max 10 µM) the “combination Emax” value (CHL-1 (Melanoma) [1]) was 0.5, the “combination Emax” value [2] was 0.808 and the “combination Emax” value [3] was 0.52. The Bliss excess [4] was -0.0251, the Bliss excess [5] was -0.0225 and the Bliss excess (HuO-3N1 (Osteosarcoma)) was -0.0437. It also gave a Bliss excess [6] of 0.0103, a Bliss excess [7] of 0.0188 and a Bliss excess (CHL-1 (Melanoma) [8]) of 0.0221. It also gave a Bliss excess [9] of 0.0174, a Bliss excess [10] of -0.0401 and a Bliss excess (ES-2 (Ovarian Carcinoma)) of -0.131. It also gave a Bliss excess [11] of 0.0516, a Bliss excess [12] of 0.0329 and a Bliss excess [13] of 0.005. The Bliss excess [14] was -0.0219, the Bliss excess [15] was 0.0087 and the Bliss excess [16] was -0.0011. It also gave a Bliss excess [17] of -0.046 and a Bliss excess [18] of -0.016.
